Data set [1] is described as follows: Rat pharmacokinetics, oral dosing. The data set is classed as in vivo, Sprague-Dawley rats. Conditions: male, Sprague-Dawley, oral dosing at 3 mg/kg, plasma; for half-life: read-out: Rat T1/2. Here is the method: Intravenous dosing: Compounds were formulated at 1.0 mg/mL in a solution comprising 5% polyethylene glycol 400 and 95% (12% (w/v) sulfobutyl-β-cyclodextrin in water) (v/v). Formulated compounds were sterile filtered through a 0.22 micron filter before dosing. Compounds were administered to male, 7-11-week-old Sprague-Dawley rats by jugular vein cannula infusion over 30 minutes at a dose of 1 mg/kg. Oral dosing: Compounds were formulated at 1.0 mg/mL in a solution comprising 5% polyethylene glycol 400 and 95% (12% (w/v) sulfobutyl-β-cyclodextrin in water) (v/v). Formulated compounds were administered to male, 7-11 week old Sprague-Dawley rats by oral gavage at a dose of 10 mg/kg or 3 mg/kg.
Sample collection: Blood collections of about 0.2 mL per time point were performed from jugular vein or other suitable site of each animal, into pre-chilled commercial EDTA-K2 tubes and placed on wet ice until centrifugation. Blood samples were processed for plasma by centrifugation at approximately 4° C., 3,200 g for 10 min. Plasma was collected and transferred into pre-labeled 96 well plate or polypropylene tubes, quick frozen over dry ice and kept at −60° C. or lower until
Data analysis: Plasma concentration versus time data was plotted in graph and analyzed by non-compartmental approaches using the Phoenix WinNonlin 6.3 software program. Related PK parameters were calculated according to dosing route, e.g., CL, Vdss and C0 for intravenous administration, Cmax, Tmax or % F for extravascular administration, and T1/2, AUC(0-t), AUC(0-inf), MRT(0-t), MRT(0-inf) for all routes.

Data set [2] deals with T1, human GLP-1R receptor (Homo sapiens, UniProt P43220).
T1 construct: expressed in transfected cells
T1 sequence (P43220 24-463): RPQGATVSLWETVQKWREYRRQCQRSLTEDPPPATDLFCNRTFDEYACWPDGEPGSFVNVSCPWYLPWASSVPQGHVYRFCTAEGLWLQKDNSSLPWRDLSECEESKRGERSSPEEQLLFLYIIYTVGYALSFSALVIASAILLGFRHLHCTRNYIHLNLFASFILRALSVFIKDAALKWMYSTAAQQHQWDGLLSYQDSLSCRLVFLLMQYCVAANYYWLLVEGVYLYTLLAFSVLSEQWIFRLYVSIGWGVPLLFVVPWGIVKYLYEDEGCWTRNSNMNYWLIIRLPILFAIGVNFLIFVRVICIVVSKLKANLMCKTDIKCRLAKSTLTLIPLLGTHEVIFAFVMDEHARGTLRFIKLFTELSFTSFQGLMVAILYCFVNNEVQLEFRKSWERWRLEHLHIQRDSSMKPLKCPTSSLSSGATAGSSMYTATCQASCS
The data set can be described thus: GLP-1R low expression cell assay (cAMP TR-FRET, CHO-K1_hGLP-1Rlow_clone10 cells). It counts as cell-based. The note with it: for EC50: cAMP TR-FRET, 30 min at 25° C.; for Emax: maximum activation relative to control GLP-1 peptide agonist. In outline: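 CHO-K1 cells stably expressing low surface human GLP-1R (clone10), 1,000 cells/well, exposed to 10-point 3-fold compound dilutions for 30 min at 25 °C. cAMP measured by TR-FRET (Eu-cAMP tracer/ULight-anti-cAMP, 15 min). EC50 from Hill fit of duplicate percent activation relative to a parallel GLP-1 control agonist.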

`C[C@]1(c2ccc(Cl)cn2)Oc2cccc(C3CCN(Cc4nc5c(OC6CC6)cc(C(=O)O)cc5n4Cc4cncs4)CC3)c2O1` [Compound 6, (S)-2-((4-(2-(5-chloropyridin-2-yl)-2-methylbenzo[d][1,3]dioxol-4-yl)piperidin-1-yl)methyl)-4-cyclopropoxy-1-(thiazol-5-ylmethyl)-1H-benzo[d]imidazole-6-carboxylic acid]: in data set [1], the AUC was < 500 ng·h/mL, the Cmax was < 500 ng/mL, the half-life was 1.5 to 2.5 h and the bioavailability is 25 to 50%. For the same compound, in data set [2], the EC50 is < 10 nM and the Emax is > 85%.
For the compound `Cn1c(CN2CCC(c3cccc(OCc4ccc(Cl)c5ccoc45)n3)CC2)nc2c(OC(F)F)cc(C(=O)O)cc21` [Compound 237, 2-((4-(6-((4-Chlorobenzofuran-7-yl)methoxy)pyridin-2-yl)piperidin-1-yl)methyl)-4-(difluoromethoxy)-1-methyl-1H-benzo[d]imidazole-6-carboxylic acid], in data set [1], the Cmax fell in the range of 2000 to 5000 ng/mL, the half-life fell in the range of 1.5 to 2.5 h and the bioavailability fell in the range of 50 to 85%. Moreover, in data set [2], the EC50 was < 10 nM and the Emax is > 85%.
As for `Cn1c(CN2CCC(c3cccc(OCc4ccc(C#N)cc4F)n3)CC2)nc2c(OC(F)F)cc(C(=O)O)cc21` [Compound 127, 2-((4-(6-((4-Cyano-2-fluorobenzyl)oxy)pyridin-2-yl)piperidin-1-yl)methyl)-4-(difluoromethoxy)-1-methyl-1H-benzo[d]imidazole-6-carboxylic acid], in data set [1], the AUC was in the range of 2500 to 10000 ng·h/mL, the Cmax is 2000 to 5000 ng/mL, the half-life was < 1.5 h and the bioavailability lay within 50 to 85%. In data set [2], the EC50 is < 10 nM and the Emax was > 85%.
Regarding `COc1cc(C(=O)O)cc2c1nc(CN1CCC(c3cccc(OCc4ccc(Cl)c5c4OCC5)n3)CC1)n2C` [Compound 297, 2-((4-(6-((4-Chloro-2,3-dihydrobenzofuran-7-yl)methoxy)pyridin-2-yl)piperidin-1-yl)methyl)-4-methoxy-1-methyl-1H-benzo[d]imidazole-6-carboxylic acid], in data set [1], the Cmax lay within 2000 to 5000 ng/mL, the half-life lay in the range of 1.5 to 2.5 h and the bioavailability was 25 to 50%. In data set [2], the EC50 was < 10 nM and the Emax was > 85%.
In the case of `COc1cc(Cl)ccc1COc1cccc(C2CCN(Cc3nc4c(OC(F)F)cc(C(=O)O)cc4n3C)CC2)n1` [Compound 226, 2-((4-(6-((4-Chloro-2-methoxybenzyl)oxy)pyridin-2-yl)piperidin-1-yl)methyl)-4-(difluoromethoxy)-1-methyl-1H-benzo[d]imidazole-6-carboxylic acid], in data set [1], the Cmax was > 5000 ng/mL, the half-life is ≥ 2.5 h and the bioavailability was > 85%. Further, in data set [2], the EC50 was < 10 nM and the maximal response (Emax) was > 85%.
On to `COc1cc(C(F)(F)F)ccc1COc1cccc(C2CCN(Cc3nc4c(OC(F)F)cc(C(=O)O)cc4n3C)CC2)n1` [Compound 154, 4-(Difluoromethoxy)-2-((4-(6-((2-methoxy-4-(trifluoromethyl)benzyl)oxy)pyridin-2-yl)piperidin-1-yl)methyl)-1-methyl-1H-benzo[d]imidazole-6-carboxylic acid], for which, in data set [1], the Cmax was > 5000 ng/mL, the half-life lay within 1.5 to 2.5 h and the bioavailability was in the range of 50 to 85%. In data set [2], the EC50 was < 10 nM and the Emax is > 85%.
As for `Cn1c(CN2CCC(c3cccc4c3O[C@@H](c3ccc(C#N)cc3F)CO4)CC2)nc2c(OCCF)cc(C(=O)O)cc21` [Compound 294, (S)-2-((4-(3-(4-Cyano-2-fluorophenyl)-2,3-dihydrobenzo[b][1,4]dioxin-5-yl)piperidin-1-yl)methyl)-4-(2-fluoroethoxy)-1-methyl-1H-benzo[d]imidazole-6-carboxylic acid], in data set [1], the AUC is < 500 ng·h/mL, the Cmax is < 500 ng/mL, the half-life was ≥ 2.5 h and the bioavailability was < 25%. Further, in data set [2], the EC50 is > 1000 nM and the maximal effect (Emax) was 50 to 85%.
`C[C@]1(c2ccc(Cl)cn2)Oc2cccc(C3CCN(Cc4nc5c(OC6COC6)cc(C(=O)O)cc5n4C[C@@H]4CCO4)CC3)c2O1` [Compound 72, 2-((4-((S)-2-(5-Chloropyridin-2-yl)-2-methylbenzo[d][1,3]dioxol-4-yl)piperidin-1-yl)methyl)-1-(((S)-oxetan-2-yl)methyl)-4-(oxetan-3-yloxy)-1H-benzo[d]imidazole-6-carboxylic acid]: in data set [1], the AUC was < 500 ng·h/mL, the Cmax was < 500 ng/mL, the half-life is < 1.5 h and the bioavailability was < 25%. For the same compound, in data set [2], the EC50 was < 10 nM and the Emax was > 85%.
In the case of `COc1cc(C(F)(F)F)ccc1COc1cccc(C2CCN(Cc3nc4c(OC)cc(C(=O)O)cc4n3C)CC2)n1` [Compound 306, 4-Methoxy-2-((4-(6-((2-methoxy-4-(trifluoromethyl)benzyl)oxy)pyridin-2-yl)piperidin-1-yl)methyl)-1-methyl-1H-benzo[d]imidazole-6-carboxylic acid], in data set [1], the AUC lay within 2500 to 10000 ng·h/mL, the Cmax was in the range of 2000 to 5000 ng/mL, the half-life lay in the range of 1.5 to 2.5 h and the bioavailability was 50 to 85%. In data set [2], the EC50 is < 10 nM and the Emax is > 85%.
Turning to `CC(F)(F)c1cc(C(=O)O)cc2c1nc(CN1CCC(c3cccc4c3O[C@](C)(c3ccc(Cl)cn3)O4)CC1)n2C[C@@H]1CCO1` [Compound 71, 2-((4-((R)-2-(5-Chloropyridin-2-yl)-2-methylbenzo[d][1,3]dioxol-4-yl)piperidin-1-yl)methyl)-4-(1,1-difluoroethyl)-1-(((S)-oxetan-2-yl)methyl)-1H-benzo[d]imidazole-6-carboxylic acid], in data set [1], the AUC fell in the range of 500 to 2500 ng·h/mL, the Cmax was 500 to 1000 ng/mL, the half-life was < 1.5 h and the bioavailability was 25 to 50%. Further, in data set [2], the EC50 lay within 10 to 100 nM and the Emax was > 85%.
For `C[C@@]1(c2ccc(Cl)cn2)Oc2cccc(C3CCN(Cc4nc5c(OC6CC6)cc(C(=O)O)cc5n4Cc4cncs4)CC3)c2O1` [Compound 7, (R)-2-((4-(2-(5-chloropyridin-2-yl)-2-methylbenzo[d][1,3]dioxol-4-yl)piperidin-1-yl)methyl)-4-cyclopropoxy-1-(thiazol-5-ylmethyl)-1H-benzo[d]imidazole-6-carboxylic acid], in data set [1], the AUC was < 500 ng·h/mL, the Cmax is < 500 ng/mL, the half-life is ≥ 2.5 h and the bioavailability is < 25%. Also, in data set [2], the EC50 was 10 to 100 nM and the Emax was > 85%.
Consider `COc1c(F)c(C(=O)O)cc2c1nc(CN1CCC(c3cccc(OCc4ccc(C#N)cc4F)n3)CC1)n2C` [Compound 301, 2-((4-(6-((4-Cyano-2-fluorobenzyl)oxy)pyridin-2-yl)piperidin-1-yl)methyl)-5-fluoro-4-methoxy-1-methyl-1H-benzo[d]imidazole-6-carboxylic acid], for which, in data set [1], the AUC was in the range of 500 to 2500 ng·h/mL, the Cmax lay in the range of 500 to 1000 ng/mL, the half-life was 1.5 to 2.5 h and the bioavailability is 50 to 85%. Also, in data set [2], the EC50 fell in the range of 10 to 100 nM and the Emax was > 85%.
Consider `Cn1c(CN2CCC(c3ccc(F)c(OCc4ccc(Cl)cc4F)c3)CC2)nc2c(OC(F)F)cc(C(=O)O)cc21` [Compound 216, 2-((4-(3-((4-Chloro-2-fluorobenzyl)oxy)-4-fluorophenyl)piperidin-1-yl)methyl)-4-(difluoromethoxy)-1-methyl-1H-benzo[d]imidazole-6-carboxylic acid], for which, in data set [1], the Cmax is > 5000 ng/mL, the half-life lay within 1.5 to 2.5 h and the bioavailability fell in the range of 50 to 85%. Further, in data set [2], the EC50 lay in the range of 10 to 100 nM and the maximal effect (Emax) was > 85%.
On to `Cn1c(CN2CCC(c3cccc(OCc4ccc(Cl)cc4F)n3)CC2)nc2c(O)cc(C(=O)O)cc21` [Compound 307, 2-((4-(6-((4-Chloro-2-fluorobenzyl)oxy)pyridin-2-yl)piperidin-1-yl)methyl)-4-hydroxy-1-methyl-1H-benzo[d]imidazole-6-carboxylic acid], for which, in data set [1], the AUC is < 500 ng·h/mL, the Cmax was < 500 ng/mL, the half-life is ≥ 2.5 h and the bioavailability was in the range of 25 to 50%. Moreover, in data set [2], the EC50 was 10 to 100 nM and the Emax was > 85%.

The values are drawn from patent publication US20240368120A1 (Terns Pharmaceuticals, Inc., priority 2023, published 2024).
